{
  "source": "patent US9226911B2",
  "about": "“Method of reducing weight using composition containing fucoxanthin extract” (BEIJING GINGKO GROUP BIOLOGICAL TECHNOLOGY CO., LTD., priority 2009, dated 2016)",
  "key": {"[1]": {"system": "model rats with alimentary obesity", "test": "Example 6: fat pads around the testicles in model rats with alimentary obesity", "type": "in vivo, SD rats", "conditions": "x ± s, 30 days, A 362.5 μg, B 18.12 μg, C 9.06 mg", "experimental": "(§1) Test substances: Formulations are prepared according to the ratios shown in Table 4 Formulations for feeding animals: high-fat feed is composed of 80% basic feed, 10% lard and 10% yolk powder.\n(§2) Grouping and treatment of the test animals: 80 grown-up male healthy SD clean grade rats (body weight 180-210 g) are adaptively fed with basic feed for a week, 10 are used as basic feed control, the rest are fed with high-fat feed. A month later, the group of rats fed with high-fat feed is randomly grouped into 7 groups according to their weights, 10 in each group: model control, fucoxanthin (A), tocotrienols(B), fucoidan(C), composition A+B+C, composition A+B and composition A+C. The group of basic feed keeps on feeding with basic feed, the rest groups are fed with high-fat feeds. The groups of basic feed and model control are intragastrically administrated with distilled water, the rest groups are intragastrically administrated with tested medicines, all administrated for 30 d. The groups of animals are raised in different cages in rooms with the temperature conditioned at (22±2) ° C. and under natural illumination. The rats take food and water freely. Each week, their body weights are measured and the amounts of food they take are observed and recorded. They are weighted after feeding for 30 d.\n(§3) Statistical analysis: the variance from the data collected in this experiment is analyzed with SAS package, Dunnett's t test is used to compare statistically the results from different groups, the results of P<0.05 is decided as statistically significant.\nThe procedure was the same as in Example 4. After feeding for 30 days and weighing, executing all the rats, the fat pads around the testicles were peeled off and weighed accurately. Statistical analysis was carried out as in Example 4."}, "[2]": {"system": "model rats with alimentary obesity", "test": "Example 5: abdomen fat in model rats with alimentary obesity", "type": "in vivo, SD rats", "conditions": "x ± s, 30 d, A 9.06 μg, B 36.25 μg, C 18.12 mg (A + B: A 36.25 μg [sic])", "experimental": "as §1, §2, §3\nThe procedure was the same as in Example 4. After feeding for 30 d and weighing, executing all the rats, the abdomen fat was peeled off and weighed accurately. Statistical analysis was carried out as in Example 4"}, "[3]": {"system": "model rats with alimentary obesity", "test": "Example 4: body weight of rats with high-fat-feed alimentary obesity, 30 d intragastric administration", "type": "in vivo, SD rats", "conditions": "x ± s; for Body weight (g) (after experiment): after 30 d intragastric; for Body weight (g) (before experiment): baseline after 1 month high-fat feed, 10 rats per group", "experimental": "as §1, §2, §3"}, "[4]": {"system": "model rats with alimentary obesity", "test": "Example 7: fat pads around the kidneys in model rats with alimentary obesity", "type": "in vivo, SD rats", "conditions": "x ± s; 30 d; A 181.23 μg, B 398.7 μg, C 1.81 mg", "experimental": "as §1, §2, §3\nThe procedure was the same as in Example 4. After feeding for 30 d and weighing, executing all the rats, the fat pads around the kidneys were taken out and weighed accurately. Statistical analysis was carried out as in Example 4."}, "test subjects": {"system": "test subjects", "test": "Example 8: clinic intake trial, body weight and abdomen fat areas by CT", "type": "in vivo, human", "excerpt": "To examine the weight reducing effect of fucoxanthin composition by means of random control method, 20 eligible test subjects of the age of 20 to 50 were divided into 5 groups, A+B+C, A+C, A+B, A, B+C, with random figure table method. The number of the subjects in each group was n=4. The daily doses of the medicines taken by the subjects were according to Table 12. Apart from being administrated with each of the different tested medicines at the breakfast time according to the set way of taking the medicine, other normal life style and dietetic habit of the subjects were not changed. No low-calorie food recipe was required, no restriction to the food and drink was executed and no extra physical training was carried out. To examining the effect of sampling of the medicine, the subjects were respectively examined before sampling of the medicine and 1 month, 2 and 3 months after the sampling. That is, the bodyweight, waist- and hiplines, blood sugar and blood fat were measured, abdomen CT scanning was carried out and so on. The subjects were periodically followed-up to find out the experiences and to supervise and guarantee compliance of the customers in taking the medicine. For the test, those suffered from serious metabolic diseases that need medicinal control and those taken other weight reducing products had been excluded.\nAbdomen fat areas were measured with CT • Instrument: CT Model Pronto; Hitachi, Japan. • 120 kV, 175 mA • Layer thickness of the scanning: 10 mm • Scanning in the umbilical cross-section • Attenuation of the adipose tissue: −250˜−50 HU (CT Unit) • Calculation of the fat areas: total abdomen fat, visceral- and subcutaneous fat (mm^2)\nUsing CT Scanning, total fat—as well as visceral fat areas were marked out across the umbilical cross-section, the areas were measured respectively, the area of subcutaneous fat was obtained as the difference of both areas."}, "[5]": {"conditions": "per rat A 36.25 μg, B 36.25 μg, C 0.4 mg"}, "[6]": {"conditions": "over 30 d intragastric, per rat A 36.25 μg, B 36.25 μg, C 0.4 mg"}, "[7]": {"conditions": "n = 4, after vs before, daily dose A 2 mg, B 2 mg, C 22 mg"}, "[8]": {"conditions": "x ± s, n = 4, CT, oral daily dose A 2 mg, B 2 mg, C 22 mg"}},
  "note": "Marks after values point to notes of the source that are not given here.",
  "data": [
    {"substance": "fucoidan", "values": [
      {"measurement": "Body weight (g) (after experiments)", "setting": "[1]", "result": "546.59 ± 18.64", "unit": "g"},
      {"measurement": "Fat pad weight around the testicles", "setting": "[1]", "result": "9.11 ± 0.48", "unit": "g"},
      {"measurement": "Fat pad weight around the testicles/body weight", "setting": "[1]; in % (unit assumed)", "result": "1.67 ± 0.13"},
      {"measurement": "Abdomen fat", "setting": "[2]", "result": "12.99 ± 1.23", "unit": "g"},
      {"measurement": "Body weight (g) (after experiment)", "setting": "[2]", "result": "546.59 ± 18.64", "unit": "g"},
      {"measurement": "Weight of abdomen fat/body weight", "setting": "[2]; in % (unit assumed)", "result": "2.38 ± 0.13"},
      {"measurement": "Body weight (g) (after experiment)", "setting": "[3]; [5]", "result": "546.59 ± 18.64", "unit": "g"},
      {"measurement": "Body weight (g) (before experiment)", "setting": "[3]", "result": "486.69 ± 21.12", "unit": "g"},
      {"measurement": "Weight increased", "setting": "[3]; [6]", "result": "59.90 ± 18.11", "unit": "g"},
      {"measurement": "Body weight (g) (after experiments)", "setting": "[4]", "result": "546.59 ± 18.64", "unit": "g"},
      {"measurement": "Total weight of fat pads around the kidneys", "setting": "[4]", "result": "9.29 ± 0.61", "unit": "g"},
      {"measurement": "Total weight of fat pads around the kidneys/body weight", "setting": "[4]", "result": "1.70 ± 0.13"}
    ]},
    {"substance": "fucoxanthin", "values": [
      {"measurement": "Body weight (g) (after experiments)", "setting": "[1]", "result": "530.18 ± 20.32", "unit": "g"},
      {"measurement": "Fat pad weight around the testicles (g)", "setting": "[1]", "result": "7.32 ± 0.83Δ g"},
      {"measurement": "Fat pad weight around the testicles/body weight", "setting": "[1]", "result": "1.38 ± 0.11Δ"},
      {"measurement": "effects compared with B+C group", "setting": "test subjects; clinic trial, P<0.05", "result": "more significant than B+C group"},
      {"measurement": "The area of subcutaneous fat, Decrease (%)", "setting": "test subjects; [7]", "result": 6.10, "unit": "%"},
      {"measurement": "The area of visceral fat, Decrease (%)", "setting": "test subjects; [7]", "result": 4.20, "unit": "%"},
      {"measurement": "Total abdomen fat area, decrease", "setting": "test subjects; [7]", "result": 5.68, "unit": "%"},
      {"measurement": "Body weight Change: decrease by", "setting": "test subjects; n = 4, oral daily dose A 2 mg, B 2 mg, C 22 mg, after vs before", "result": "by 1.5%"},
      {"measurement": "The area of subcutaneous fat, Before clinic experiment", "setting": "test subjects; x ± s, n = 4, CT, difference of total and visceral fat areas, baseline", "result": "15514 ± 1192", "unit": "mm^2"},
      {"measurement": "The area of subcutaneous fat, After clinic experiment", "setting": "test subjects; x ± s, n = 4, CT, difference of total and visceral fat areas, daily dose A 2 mg, B 2 mg, C 22 mg", "result": "14568 ± 1225* mm^2"},
      {"measurement": "Total abdomen fat area, Before clinic experiment", "setting": "test subjects; x ± s, n = 4, CT, umbilical cross-section, baseline", "result": "36555 ± 1645", "unit": "mm^2"},
      {"measurement": "The area of visceral fat, Before clinic experiment", "setting": "test subjects; x ± s, n = 4, CT, baseline", "result": "17380 ± 1185", "unit": "mm^2"},
      {"measurement": "The area of visceral fat, After clinic experiment", "setting": "test subjects; [8]", "result": "16650 ± 1484* mm^2"},
      {"measurement": "Total abdomen fat area, After clinic experiment", "setting": "test subjects; [8]", "result": "34479 ± 1475", "unit": "mm^2"},
      {"measurement": "Body weight, Before clinic experiment", "setting": "test subjects; x ± s, n = 4, baseline", "result": "68.4 ± 0.13", "unit": "kg"},
      {"measurement": "Body weight, After clinic experiment", "setting": "test subjects; x ± s, n = 4, oral daily dose A 2 mg, B 2 mg, C 22 mg", "result": "67.37 ± 0.11", "unit": "kg"},
      {"measurement": "Abdomen fat (g)", "setting": "[2]", "result": "9.58 ± 1.99Δ g"},
      {"measurement": "Body weight (g) (after experiment)", "setting": "[2]", "result": "530.18 ± 20.32", "unit": "g"},
      {"measurement": "Weight of abdomen fat/body weight", "setting": "[2]", "result": "1.81 ± 0.13Δ"},
      {"measurement": "Body weight (g) (after experiment)", "setting": "[3]; [5]", "result": "530.18 ± 20.32Δ g"},
      {"measurement": "Body weight (g) (before experiment)", "setting": "[3]", "result": "486.50 ± 22.10", "unit": "g"},
      {"measurement": "Weight increased(g)", "setting": "[3]; [6]", "result": "43.68 ± 19.13Δ g"},
      {"measurement": "Body weight (g) (after experiments)", "setting": "[4]", "result": "530.18 ± 20.32", "unit": "g"},
      {"measurement": "Total weight of fat pads around the kidneys (g)", "setting": "[4]", "result": "7.42 ± 0.60Δ g"},
      {"measurement": "Total weight of fat pads around the kidneys/body weight", "setting": "[4]", "result": "1.42 ± 0.12Δ"}
    ]}
  ]
}
